According to publication PMC5431432, “Low-basicity 5-HT7 Receptor Agonists Synthesized Using the van Leusen Multicomponent Protocol” (Scientific Reports, 2017):
Where two headings read alike, the source gives them in different places.

Assays:
[1] = molecular target: T1, human serotonin 5-HT1AR (Homo sapiens, UniProt P08908); assay: Radioligand binding, [3H]-8-OH-DPAT displacement
T1 sequence (P08908 1-422): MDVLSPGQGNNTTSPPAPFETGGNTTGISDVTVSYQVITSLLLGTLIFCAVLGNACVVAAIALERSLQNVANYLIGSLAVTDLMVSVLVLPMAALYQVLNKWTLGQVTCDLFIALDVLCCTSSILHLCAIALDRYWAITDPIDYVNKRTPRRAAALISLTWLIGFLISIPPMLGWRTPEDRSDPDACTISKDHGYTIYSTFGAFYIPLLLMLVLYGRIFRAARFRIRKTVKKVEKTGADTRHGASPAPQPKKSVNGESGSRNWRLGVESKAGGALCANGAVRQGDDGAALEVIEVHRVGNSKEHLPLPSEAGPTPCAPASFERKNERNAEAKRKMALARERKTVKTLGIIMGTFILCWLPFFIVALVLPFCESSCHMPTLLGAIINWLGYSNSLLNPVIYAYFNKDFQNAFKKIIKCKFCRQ

[2] = molecular target: T2, human serotonin 5-HT2A receptor (Homo sapiens, UniProt P28223); assay: Radioligand binding, [3H]-ketanserin displacement
T2 construct: host or cells: CHO-K1

[3] = molecular target: human serotonin 5-HT6R (Homo sapiens, UniProt P50406); assay: Radioligand binding, [3H]-LSD displacement
[4] = molecular target: human serotonin 5-HT7bR (Homo sapiens, UniProt P34969); assay: Radioligand binding, [3H]-5-CT displacement
[5] = molecular target: human dopamine D2LR (Homo sapiens, UniProt P14416); assay: Radioligand binding, [3H]-raclopride displacement
[6] = molecular target: human 5-HT7 receptor (Homo sapiens, UniProt P34969); assay: Functional assay, cAMP production (TR-FRET) in HEK293 cells overexpressing 5-HT7R; assay type: cell-based; details: for EC50: hydrochloride salts
[7] = Fig. 2, read-out: pKi 5-HT1A (converted)
[8] = Fig. 2, read-out: pKi 5-HT2A (converted)
[9] = Fig. 2, read-out: pKi 5-HT6 (converted)
[10] = Fig. 2, read-out: pKi 5-HT7 (converted)
[11] = Fig. 2, read-out: pKi D2 (converted)

T2 sequence (P28223 whole entry): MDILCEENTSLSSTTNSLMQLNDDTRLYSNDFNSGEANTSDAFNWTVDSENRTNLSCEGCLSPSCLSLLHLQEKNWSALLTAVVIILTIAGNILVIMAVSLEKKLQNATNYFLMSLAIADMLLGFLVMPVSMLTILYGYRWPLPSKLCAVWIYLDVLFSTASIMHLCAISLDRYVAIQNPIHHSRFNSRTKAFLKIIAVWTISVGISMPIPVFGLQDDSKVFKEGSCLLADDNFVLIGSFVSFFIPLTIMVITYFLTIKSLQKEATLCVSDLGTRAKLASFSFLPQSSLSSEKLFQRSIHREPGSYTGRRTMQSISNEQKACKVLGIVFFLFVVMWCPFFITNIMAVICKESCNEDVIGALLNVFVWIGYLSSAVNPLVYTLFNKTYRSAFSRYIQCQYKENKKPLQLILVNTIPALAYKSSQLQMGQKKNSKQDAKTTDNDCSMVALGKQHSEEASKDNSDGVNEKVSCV
Sequence of human serotonin 5-HT6R (P50406 whole entry): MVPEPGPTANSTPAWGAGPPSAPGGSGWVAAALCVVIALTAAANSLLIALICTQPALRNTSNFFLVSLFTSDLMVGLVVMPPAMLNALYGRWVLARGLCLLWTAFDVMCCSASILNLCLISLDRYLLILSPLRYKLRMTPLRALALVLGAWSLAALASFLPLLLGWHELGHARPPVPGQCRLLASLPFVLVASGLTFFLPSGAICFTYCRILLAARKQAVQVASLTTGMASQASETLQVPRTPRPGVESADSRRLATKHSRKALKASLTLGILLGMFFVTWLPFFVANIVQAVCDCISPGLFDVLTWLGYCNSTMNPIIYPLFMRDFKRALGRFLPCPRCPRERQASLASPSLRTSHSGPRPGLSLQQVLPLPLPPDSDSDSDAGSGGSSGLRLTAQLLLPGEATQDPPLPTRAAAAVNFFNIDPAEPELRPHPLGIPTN
Sequence of human serotonin 5-HT7bR (P34969 1-432 limits assumed): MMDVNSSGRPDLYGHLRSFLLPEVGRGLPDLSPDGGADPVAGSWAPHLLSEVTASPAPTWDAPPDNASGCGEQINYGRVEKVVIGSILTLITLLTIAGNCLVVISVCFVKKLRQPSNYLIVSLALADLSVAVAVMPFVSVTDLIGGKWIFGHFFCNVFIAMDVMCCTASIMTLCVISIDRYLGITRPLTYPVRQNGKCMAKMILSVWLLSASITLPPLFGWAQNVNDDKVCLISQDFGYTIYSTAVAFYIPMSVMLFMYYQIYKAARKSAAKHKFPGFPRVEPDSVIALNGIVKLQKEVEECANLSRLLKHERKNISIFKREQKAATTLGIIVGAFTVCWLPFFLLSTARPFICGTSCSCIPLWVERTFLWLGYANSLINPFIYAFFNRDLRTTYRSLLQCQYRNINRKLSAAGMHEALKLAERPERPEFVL
Sequence of human 5-HT7 receptor (P34969 1-432 limits assumed): as above
Sequence of human dopamine D2LR (P14416 whole entry): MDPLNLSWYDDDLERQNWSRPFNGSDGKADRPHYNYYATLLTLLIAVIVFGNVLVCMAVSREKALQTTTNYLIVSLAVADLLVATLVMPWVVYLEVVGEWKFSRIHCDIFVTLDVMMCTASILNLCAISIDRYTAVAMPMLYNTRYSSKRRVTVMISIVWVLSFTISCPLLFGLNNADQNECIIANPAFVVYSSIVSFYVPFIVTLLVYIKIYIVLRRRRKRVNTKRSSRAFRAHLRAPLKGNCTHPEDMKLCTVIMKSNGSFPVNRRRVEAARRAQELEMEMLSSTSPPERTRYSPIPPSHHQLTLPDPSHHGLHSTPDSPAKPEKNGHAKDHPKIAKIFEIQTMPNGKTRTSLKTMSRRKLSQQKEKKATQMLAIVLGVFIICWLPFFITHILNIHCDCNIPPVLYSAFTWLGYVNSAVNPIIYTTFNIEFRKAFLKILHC

Row | SMILES | Ki [1, 7] [µM] | Ki [2, 8] [µM] | Ki [3, 9] [µM] | Ki [4, 10] [µM] | Ki [5, 11] [µM] | other results
1 | COc1ccc(-c2c([N+](=O)[O-])ncn2C)cc1 [2a] | > 10 | > 10 | > 10 | > 10 | > 10 | binding to 5-HT1AR in words [1]: did not bind; binding to 5-HT7R in words [4]: did not bind; melting point: 171 °C
2 | CCn1cncc1-c1cn(C)c2ccccc12 [1c] | > 10 | > 10 | 7.76 | – | > 10 | Ki ([4]; read-out: Ki 5-HT7): 5.62 µM
3 | C=CCn1cncc1-c1c[nH]c2ccc(OC)cc12 [1i] | 0.537 | > 10 | 5.75 | 0.135 | > 10 | –
4 | CCn1cncc1-c1c[nH]c2ccc(C#N)cc12 [1p] | > 10 | > 10 | > 10 | 2.51 | > 10 | –
5 | CCn1cncc1-c1cc2ccccc2[nH]1 [3b] | > 10 | > 10 | > 10 | > 10 | > 10 | –
6 | CCn1cncc1-c1c[nH]c2ccc(C)cc12 [1q] | – | – | – | – | – | Ki ([4]; read-out: K i (5-HT7R)): 0.044 µM; function at the human 5-HT7 receptor [6]: full agonists; EC50 [6]: 0.045 µM
7 | COc1ccc(-c2cncn2C)cc1 [2b] | > 10 | > 10 | 5.37 | > 10 | > 10 | binding to 5-HT7R in words [4]: completely inactive
8 | CCn1cncc1-c1c[nH]c2ccc(OCc3ccccc3)cc12 [1y] | > 10 | > 10 | – | 3.72 | 4.47 | –
9 | CCn1cncc1-c1c[nH]c2ccc(C(N)=O)cc12 [1za, 3-(1-Ethyl-1H-imidazol-5-yl)-1H-indole-5-carboxamide] | – | – | – | – | – | Ki ([4]; read-out: Ki 5-HT7): 0.005 µM
10 | COc1ccc2[nH]cc(-c3cnc[nH]3)c2c1 [1x] | 6.76 | 7.94 | 4.07 | 1.2 | 6.17 | –
11 | CCCCn1cncc1-c1c[nH]c2ccc(OC)cc12 [1g] | 0.661 | 6.17 | 5.89 | 0.324 | > 10 | –
12 | Cc1ccc2[nH]cc(CCN)c2c1 [5-methyltryptamine, reference compound] | – | – | – | – | – | Ki [1]: 0.039 µM; Ki [2]: 2.28 µM; Ki [3]: 0.327 µM; Ki [4]: 0.026 µM; Ki [5]: > 10 µM
13 | NCCc1c[nH]c2ccc(Cl)cc12 [5-chlorotryptamine, reference compound] | – | – | – | – | – | Ki [1]: 0.016 µM; Ki [2]: 0.317 µM; Ki [3]: 0.038 µM; Ki [4]: 0.016 µM; Ki [5]: 2.44 µM
14 | CCn1cncc1-c1c[nH]c2ccc(Cl)cc12 [1m] | – | – | – | – | – | Ki ([4]; read-out: K i (5-HT7R)): 0.042 µM; function at the human 5-HT7 receptor [6]: full agonists; EC50 [6]: 0.149 µM
15 | Cn1cncc1-c1c[nH]c2ccccc12 [1a] | 4.47 | 6.92 | 3.39 | – | 6.92 | selectivity over 5-HT1AR [4]: > 11 fold; Ki ([4]; read-out: Ki 5-HT7): 0.385 µM; melting point: 88 to 90 °C
16 | CCn1cncc1-c1ccc2[nH]ccc2c1 [3c] | > 10 | > 10 | 3.55 | 5.25 | > 10 | –
